“And” between values parts separate entries of the source, which are not always exact repeats. Equal entries are not always repeated.
Tests used:
[1] = Plasma pharmacokinetics after single ip injection (Ru by ICP‐MS); assay type: in vivo
Method: Blood was collected from submandibular vein using a heparin coated glass capillary into heparinized blood collection tubes on ice at time intervals of 1, 2, 6, 12, 24, 48, and 72 hours post injection. Plasma was harvested by centrifuging blood samples at 2800 rpm for 15 minutes at 4°C and stored frozen at − 80°C until analysis. Similarly, kidney, liver, and tumor were harvested after final time point, weighed, and stored into glass vials. One mL of deionized water was added to each tissue sample, subjected to ultrasonic homogenization at 15 W power for 1 minute, followed by lyophilization.
Plasma and tissue concentrations of Ru and Au were measured using inductively coupled plasma–mass spectrometry (ICP‐MS). Plasma (10 μL) or tissue samples were transferred into glass vials, and 1 mL of a 75:25 mixture of nitric acid (16 N) and hydrochloric acid (12 N) was added to each vial. The mixture was then heated at 90°C for 5 hours. After cooling to room temperature, the samples were centrifuged to remove debris if any. All samples were then mixed with 40 ppb of indium internal standard and analyzed using a Thermo Scientific XSERIES 2 ICP‐MS coupled with ESI PC3 Peltier cooled spray chamber, SC‐FAST injection loop, and SC‐4 autosampler. All the elements were measured using He/H2 collision‐reaction mode.
Pharmacokinetic parameters were obtained from the plasma concentration–time profiles by noncompartmental analysis using Phoenix WinNonlin 6.4 version 6.4 (Pharsight Corporation, Mountain View, CA). The pharmacokinetic parameters quantified were the maximum plasma drug concentration (Cmax), the time to reach Cmax (Tmax), the area under the plasma concentration–time curve from 0 hour to last measurable concentration (AUClast), elimination rate constant (ke), plasma half‐life (t1/2), apparent total clearance of the drug from plasma (Cl/F), and apparent volume of distribution (Vd/F). Concentrations of ruthenium and gold in liver, kidney, and tumors were also determined.

[2] = Hematology values (complete blood count) after the trial; assay type: in vivo, NOD-SCID mice
Method: Supplementary Table 2. Summary of hematology values (mean) for three specimens (collected 72h after the last dose of 10mg/kg/72h at the end of a 21 day trial (NOD/LtSz-Prkdscid/j. Complete blood counts of each group (n = 3 mice per group). Heparinized blood acquired from mice was assessed using the automatic Hematology Analyzer. Blood smears were carried out and fixed with methanol, stained, and observed under the microscope to carry out differential blood white cell counts.

[3] = Plasma chemistry parameters after the trial; assay type: in vivo, tumor bearing NOD-SCID mice
Method: Supplementary Table 1. Summary of plasma chemistry parameters metabolic analytes for three specimens (collected 72h after the last dose of 10mg/kg/72h at the end of a 21 day trial) from 3 tumor bearing NOD-SCID (NOD/LtSz-Prkdscid/j. The study criteria reflect pathological criterion used in clinical studies. Metabolic markers were quantified from freshly isolated plasma and compared to reference range.

xenograft Caki‐1 tumors = experiment: Xenograft renal cancer intervention (efficacy) trial; assay type: in vivo, NOD.CB17‐Prkdc SCID/J mice; settings: 10 mg/kg/72h ip
Source text: Tissue samples were processed as described above and analyzed for Ru and Au content using ICP‐MS
Percent of change in tumor burden in a cohort of 3 females and 3 males NOD.CB17‐Prkdc scid/J mice inoculated subcutaneously with 5 × 10^6 Caki‐1 cells. The treatment started when tumors were palpable (~5 mm diameter). […] (A) Representative histological samples of tumors resected from each treatment group.

[4] = automatic count, blood 72h after last dose, 21 day trial, mean n = 3
[5] = plasma 72h after last dose of 10mg/kg/72h, 21 day trial

[Cl2(p‐cymene)Ru(μ‐dppm)Au(IMes)]ClO4 [RANCE‐1]
Time to reach steady state ([1]; 10 mg/kg ip): 203.8 ± 93.4 h
AUC0‐72h ([1]; 10 mg/kg single ip, plasma): 792.9 ± 270.3 µg·h/mL
Cl/F ([1]; 10 mg/kg single ip, plasma): 0.1667 ± 0.0525 mL/min/kg
Cmax ([1]; 10 mg/kg single ip, plasma): 22600 ± 2580 ng/mL
Vd/F ([1]; 10 mg/kg single ip, plasma): 0.6121 ± 0.429 L/kg
t1/2 ([1]; 10 mg/kg single ip, plasma): 40.8 h and 40 h and 40.77 ± 18.67 h
Tmax ([1]; 10 mg/kg single ip, plasma Ru): 10.00 ± 3.46 h
Cminss ([1]; predicted, based on a dose of 10 mg/kg every 72 h): 7170 ± 3910 ng/mL
RBC ([2]; automatic count, blood 72h after last dose of 10mg/kg/72h, 21 day trial, mean n = 3, reference range 7.84-10.84): 10.31 M/uL
PDW [2, 4]: 7.5 fL
RDW-SD [2, 4]: 31.03 fL
RET ([2]; automatic count, blood 72h after last dose, 21 day trial, mean n = 3, reference range 2.56-4.56, marked *▾): 2.03%
MPV ([2]; automatic count, blood 72h after last dose, 21 day trial, mean n = 3, reference range 4.2-6.3): 6.53 fL
HGB ([2]; automatic count, blood 72h after last dose, 21 day trial, mean n = 3, reference range 11.8-17.6): 15.8 g/dL
MCH ([2]; automatic count, blood 72h after last dose, 21 day trial, mean n = 3, reference range 13.7-17.2): 15.37 pg
RDW-CV ([2]; automatic count, blood 72h after last dose, 21 day trial, mean n = 3, reference range 17.3-20.3): 23.5%
MCHC ([2]; automatic count, blood 72h after last dose, 21 day trial, mean n = 3, reference range 25.1-31.3): 29.9 g/dL
HCT ([2]; automatic count, blood 72h after last dose, 21 day trial, mean n = 3, reference range 44.1-58.3): 52.8%
MCV ([2]; automatic count, blood 72h after last dose, 21 day trial, mean n = 3, reference range 51.1-58.6): 51.3 fL
RET# ([2]; automatic count, blood 72h after last dose, 21 day trial, mean n = 3, reference range 294-444, marked *▾): 192.67 K/uL
PLT ([2]; automatic count, blood 72h after last dose, 21 day trial, mean n = 3, reference range 651-2055, marked *▾): 1056.67 K/uL
Morphology (manual differential section) ([2]; blood smears, end of 21 day trial): Many neutrophils are hypersegmented.
Morphology (automatic count section) ([2]; blood smears, three specimens, end of 21 day trial): 2+ PLT clumps. RBC morphology is within normal limits. 4+ polychromasia. 2+ acanthocytes. 4+ polychromasia. 2+ acanthocytes.
Physicochemical study and complete blood count ([2]; end of trial): no significant changes
Band# ([2]; manual differential, blood 72h after last dose, 21 day trial): 0 K/uL
MONO# ([2]; manual differential, blood 72h after last dose, 21 day trial, reference range 0.03-0.26): 0 K/uL
LYMPH# ([2]; manual differential, blood 72h after last dose, 21 day trial, reference range 0.23-1.56, marked *▴): 0.6167 K/uL
Neut# ([2]; manual differential, blood 72h after last dose, 21 day trial, reference range 0.54-3.16, marked *▴, ◎): 8.55 K/uL
MONO ([2]; manual differential, blood 72h after last dose, 21 day trial, reference range 1.71-10.93, marked *▾): 2%
LYMPH ([2]; manual differential, blood 72h after last dose, 21 day trial, reference range 13.51-42.61, marked *▾): 15.67%
NEUT ([2]; manual differential, blood 72h after last dose, 21 day trial, reference range 44.21-79.92, marked *▴): 80.67%
Clinical chemistry, treated vs control animals ([3]; end of trial): no differences
Kidney health indicators ([3]; end of trial): within normal values
DBIL [3, 5]: 0.033 mg/dL
GGT [3, 5]: 0 U/L
IBIL [3, 5]: 0.2 mg/dL
TCO2 [3, 5]: 18 mEq/L
Anion Gap ([3]; plasma 72h after last dose of 10mg/kg/72h, 21 day trial, marked *▴): 37.63
CREA ([3]; plasma 72h after last dose of 10mg/kg/72h, 21 day trial, reference range 0.2-0.5): 0.117 mg/dL
TBIL ([3]; plasma 72h after last dose of 10mg/kg/72h, 21 day trial, reference range 0.2-0.6): 0.23 mg/dL
GLOB ([3]; plasma 72h after last dose of 10mg/kg/72h, 21 day trial, reference range 1.7-2.2): 2.63 g/dL
ALB ([3]; plasma 72h after last dose of 10mg/kg/72h, 21 day trial, reference range 2.4-4.3): 2.57 g/dL
ALT ([3]; plasma 72h after last dose of 10mg/kg/72h, 21 day trial, reference range 27-195): 170.66 U/L
AST ([3]; plasma 72h after last dose of 10mg/kg/72h, 21 day trial, reference range 54-77): 394.67 U/L
CHOL ([3]; plasma 72h after last dose of 10mg/kg/72h, 21 day trial, reference range 55-169): 87.67 mg/dL
TRIG ([3]; plasma 72h after last dose of 10mg/kg/72h, 21 day trial, reference range 67-289, marked *▾): 116 mg/dL
ALP ([3]; plasma 72h after last dose of 10mg/kg/72h, 21 day trial, reference range 105-370, marked *▾): 39.33 U/L
Cl ([3]; plasma 72h after last dose of 10mg/kg/72h, 21 day trial, reference range 111-134): 106 mEq/L
GLU ([3]; plasma 72h after last dose of 10mg/kg/72h, 21 day trial, reference range 172-372, marked *▾): 165 mg/dL
Weight and well‐being during the trial (xenograft Caki‐1 tumors; 21 days): no significant change in weight or any decline in the well‐being
Tumor burden after treatment (xenograft Caki‐1 tumors; 21 days of treatment, total of 7 doses): no change in tumor burden
